The record followed here is ChEMBL document CHEMBL4359925, “Rational discovery of a highly novel and selective mTOR inhibitor” (Bioorg Med Chem Lett, 2019).

In test [1] the target is Serine/threonine-protein kinase mTOR (Homo sapiens, UniProt P42345). Put plainly: Inhibition of human mTOR measured after 30 mins in presence of ATP by Lanthascreen TR-FRET assay.
The target of test [2] is Phosphatidylinositol 4,5-bisphosphate 3-kinase catalytic subunit alpha isoform (Homo sapiens, UniProt P42336). Put plainly: Inhibition of PI3K alpha (unknown origin).
Sequence of Phosphatidylinositol 4,5-bisphosphate 3-kinase catalytic subunit alpha isoform (P42336 whole entry, canonical isoform): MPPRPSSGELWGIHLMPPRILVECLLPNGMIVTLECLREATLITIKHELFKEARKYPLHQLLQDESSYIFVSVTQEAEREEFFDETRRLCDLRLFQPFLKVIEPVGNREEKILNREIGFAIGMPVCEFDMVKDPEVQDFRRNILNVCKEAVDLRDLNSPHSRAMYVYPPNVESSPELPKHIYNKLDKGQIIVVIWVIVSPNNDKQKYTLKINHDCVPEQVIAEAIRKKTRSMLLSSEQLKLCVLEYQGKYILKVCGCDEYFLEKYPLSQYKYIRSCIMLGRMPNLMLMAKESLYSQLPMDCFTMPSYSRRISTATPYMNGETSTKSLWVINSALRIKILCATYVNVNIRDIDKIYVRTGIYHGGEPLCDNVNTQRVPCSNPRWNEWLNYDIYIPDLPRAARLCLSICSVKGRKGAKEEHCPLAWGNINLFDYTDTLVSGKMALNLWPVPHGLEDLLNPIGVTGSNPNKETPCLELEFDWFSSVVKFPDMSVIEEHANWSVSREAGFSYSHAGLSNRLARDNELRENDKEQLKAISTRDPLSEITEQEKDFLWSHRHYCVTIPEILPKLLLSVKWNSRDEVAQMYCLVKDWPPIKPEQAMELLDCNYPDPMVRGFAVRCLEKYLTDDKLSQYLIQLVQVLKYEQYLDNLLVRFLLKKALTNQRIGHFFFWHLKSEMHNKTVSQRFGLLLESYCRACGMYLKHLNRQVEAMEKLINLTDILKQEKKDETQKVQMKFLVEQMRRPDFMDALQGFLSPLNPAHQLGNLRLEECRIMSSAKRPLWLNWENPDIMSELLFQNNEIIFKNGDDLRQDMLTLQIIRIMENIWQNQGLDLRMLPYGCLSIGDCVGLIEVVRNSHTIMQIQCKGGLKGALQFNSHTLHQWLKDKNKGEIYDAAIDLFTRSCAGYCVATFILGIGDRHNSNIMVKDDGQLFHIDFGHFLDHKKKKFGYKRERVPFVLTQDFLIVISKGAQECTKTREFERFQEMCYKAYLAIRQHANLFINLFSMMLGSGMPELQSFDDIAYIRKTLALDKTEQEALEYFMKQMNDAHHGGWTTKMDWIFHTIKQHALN

The term IC50 denotes the point on the concentration scale where inhibition reaches its midpoint. In the case of `C[C@@]12COCCN1c1nc(-c3ccc(NC(=O)NC4CC4)cc3)ncc1N(CC1CC1)C2=O`, the results for the IC50 in test [1] and in test [2] were 6.31 nM and 794 nM, respectively.

On to `CNC(=O)Nc1ccc(-c2ncc3c(n2)N2CCOCC2C(=O)N3CC2CC2)cc1` (centres undefined), for which the IC50 was 31.6 nM in test [1] and 20 nM in test [2].
